75 compounds from the supplement of paper PMC8837787 can be followed below.

SMILES strings stand for the structures. Where only a bound is given, the exact number is not on record here.

For this assay, the system named is Saccharomyces cerevisiae ABC16-Green Monster. The note with it: 18 h; 30 °C; YPD. In a few lines: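 In 96-well plates, 200 µl per well of log-phase drug-sensitive S. cerevisiae ABC16-Green Monster in YPD received eight 1:2 compound dilutions (final 0.1–150 μM) in biological duplicate and was incubated for 18 h at 30 °C. OD600 was read at the start and at 18 h. IC50 was fitted to the background-subtracted readings by variable-slope nonlinear regression in GraphPad Prism.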

On to `Cc1cc(C(=O)NNC(=O)c2c(C)nc3ccccn23)c2nc3n(c2n1)CCCCC3`, for which the IC50 growth inhibition came to 41.8 µM.

The compound `Cc1nn2c(=O)cc(-c3ccccc3)[nH]c2c1-c1ccc(F)cc1` displayed an IC50 growth inhibition of 39 µM.

In turn, `COc1cc(Nc2ncc(F)c(Nc3ccc4c(n3)NC(=O)C(C)(C)O4)n2)cc(OC)c1OC` [Tamatinib besilate] displayed an IC50 growth inhibition of over 75 µM.

In the case of `CCS(=O)(=O)c1ncc(Cl)c(C(=O)Nc2ccc(C(=O)OC)cc2)n1`, the IC50 growth inhibition is 17.4 µM.

The compound `O=C(Nc1ccccc1)c1ccc(-c2cc3ccncc3cc2OC2CCNCC2)s1` gave an IC50 growth inhibition of 44.8 µM.

On to `Cc1ccc(CNc2ncnc3sccc23)cc1`, for which the IC50 growth inhibition is 13.4 µM.

`O=C(Nc1cc(Oc2cc(F)c(NC(=O)C3(C(=O)Nc4ccc(F)cc4)CC3)cc2F)ccn1)C1CC1` [Altiratinib] displayed an IC50 growth inhibition of over 75 µM.

Regarding `CC1C=CC=CC=CC=CC=CC=CC=CC(OC2OC(C)C(O)C(N)C2O)CC2OC(O)(CC(O)CC(O)C(O)CCC(O)CC(O)CC(=O)OC(C)C(C)C1O)CC(O)C2C(=O)O` (stereo not given) [Amphotericin B], the IC50 growth inhibition was 63.3 µM.

Compound `NC(CC(=O)c1ccc(Cl)cc1Cl)C(Cl)(Cl)Cl` (stereo not given) yielded an IC50 growth inhibition of 46.4 µM.

`Cc1[nH]c2ccccc2c(=O)c1CC=C(Cl)Cl` [GNF-Pf-4439] registered an IC50 growth inhibition of over 150 µM.

On to `c1cc2c(cc1C1=NNC(=NC3CC3)SC1)CCCC2`, for which the IC50 growth inhibition is 50.8 µM.

The compound `C=C1[C@@H](C)[C@H]2[C@H](Cc3ccccc3)NC(=O)[C@]23OC(=O)/C=C/[C@H](O)CCC[C@@H](C)C/C=C/[C@H]3[C@@H]1O` [Cytochalasin B] showed an IC50 growth inhibition of over 75 µM.

`CC(C)Cn1c2c(c(O)c(C(=O)Nc3ncccc3O)c1=O)CCCC2` [CBR572] showed an IC50 growth inhibition of 46.9 µM.

Regarding `O[C@@H](c1cc(C(F)(F)F)nc2c(C(F)(F)F)cccc12)[C@H]1CCCCN1`, the IC50 growth inhibition was 45.6 µM.

`CC1(C)C=Cc2cc(C(=N)NOC(=O)c3ccccc3)ccc2O1`: the IC50 growth inhibition was determined as 4.33 µM.

`CC(=O)OC1C(=O)C2(C)C(O)CC3OCC3(OC(C)=O)C2C(OC(=O)c2ccccc2)C2(O)CC(OC(=O)C(O)C(NC(=O)c3ccccc3)c3ccccc3)C(C)=C1C2(C)C` (stereo not given) [Paclitaxel] came in with an IC50 growth inhibition of over 75 µM.

Compound `O=C(Nc1nc(-c2ccccn2)cs1)C1CC1c1ccccc1F` (stereo not given) yielded an IC50 growth inhibition of 6.32 µM.

`C=CCc1c(C)nc2c(-c3ccccc3)cnn2c1N1CCN(CCO)CC1` registered an IC50 growth inhibition of 62.8 µM.

Take `Fc1ccc2[nH]c3c(N4CCN(C(c5ccccc5)c5ccccc5)CC4)ncnc3c2c1` [GNF-Pf-2775]: the IC50 growth inhibition worked out at 0.723 µM.

Compound `Cc1ccc(S(=O)(=O)n2cc(-c3ccnc(N)c3)c3cc(Br)cnc32)cc1` had an IC50 growth inhibition of 6.17 µM.

As to `Clc1ccc(Cl)c(CO[C@H]2CCCC[C@@H]2n2ccnc2)c1`, the IC50 growth inhibition was 68.6 µM.

As for `COc1ccc(C2Sc3ccccc3N=C3C2=C(O)c2ccccc23)cc1` (stereo not given) [GNF-Pf-5129], the IC50 growth inhibition came to 3.97 µM.

With `Cc1nc(NC(=O)c2csc(NC3CCCC3)n2)sc1C`, the IC50 growth inhibition is 12.4 µM.

With `CS(=O)(=O)CCNCc1ccc(-c2ccc3ncnc(Nc4ccc(OCc5cccc(F)c5)c(Cl)c4)c3c2)o1` [lapatinib], the IC50 growth inhibition came to 5.96 µM.

`Cc1cc(C(=O)ONC(=N)c2ccccc2)nn1C(C)(C)C` registered an IC50 growth inhibition of 63.5 µM.

In the case of `CCOC(=O)c1c(NC(=O)CNCc2ccccn2)sc(CC)c1C`, the IC50 growth inhibition was 47.8 µM.

Compound `Cc1c(N)nc(C(CC(N)=O)NCC(N)C(N)=O)nc1C(=O)NC(C(=O)NC(C)C(O)C(C)C(=O)NC(C(=O)NCCc1nc(-c2nc(C(=O)NCCC[S+](C)C)cs2)cs1)C(C)O)C(OC1OC(CO)C(O)C(O)C1OC1OC(CO)C(O)C(OC(N)=O)C1O)c1cnc[nH]1` (stereo not given) [Bleomycin (JP1)] showed an IC50 growth inhibition of over 75 µM.

Regarding `COc1ccc(Cn2cnc3c(-c4ccco4)nc(Cl)nc32)cc1`, the IC50 growth inhibition worked out at 51.6 µM.

`CC(C)(C)c1ccc(C(=N)NOC(=O)c2sccc2Cl)cc1` gave an IC50 growth inhibition of 8.34 µM.

For `COc1cc(C)c2c(Oc3cccc(C(F)(F)F)c3)c(OC)cc(NC(C)CCCN)c2n1` (stereo not given) [Tafenoquine], the IC50 growth inhibition came to 101 µM.

On to `CCN1C(=Cc2cc(C)[n+](CCCN3CCOCC3)c(C)c2)Sc2ccccc21`, for which the IC50 growth inhibition turned out to be 55.3 µM.

`O=C(c1c[nH]c(-c2ccnc(N3CCCC3)c2)c1)c1ccccc1O` returned an IC50 growth inhibition of 60.6 µM.

For `CC1COC(Cn2cncn2)(c2ccc(Oc3ccc(Cl)cc3)cc2Cl)O1` (stereo not given), the IC50 growth inhibition came out at 39 µM.

In turn, `CCOC(=O)C1=C(C)NC(C)=C(C(=O)OC)C1c1cccc(Cl)c1Cl` (stereo not given) [Felodipine] had an IC50 growth inhibition of 20.7 µM.

The compound `COC(=O)Nc1nc2ccc(C(=O)c3ccccc3)cc2[nH]1` [Mebendazole] came in with an IC50 growth inhibition of 5.42 µM.

In the case of `OCCNc1nc(Nc2ccc(Cl)c(Cl)c2)nc2ccccc12`, the IC50 growth inhibition was determined as 14 µM.

Take `C=CCn1c(C)cc(C(=O)CSc2nc3ccccc3o2)c1C`: the IC50 growth inhibition came out at 11.2 µM.

`O=C(Nc1nc(-c2ccccn2)cs1)c1ccccc1Br`: the IC50 growth inhibition stood at 8.35 µM.

The compound `Cc1cc(Nc2ccc(OCc3ccccc3)cc2)nc2cc(O)ccc12` showed an IC50 growth inhibition of 2.38 µM.

Compound `CC(C)/N=c1\cc2n(-c3ccc(Cl)cc3)c3ccccc3nc-2cc1Nc1ccc(Cl)cc1` [Clofazimine] returned an IC50 growth inhibition of 5.81 µM.

For the compound `CCN(CC)C(=S)SSC(=S)N(CC)CC` [Disulfiram], the IC50 growth inhibition was determined as 52.9 µM.

Compound `Cc1ccc(Nc2nc(N)nc(CN(C)Cc3nc(=O)c4ccccc4[nH]3)n2)cc1` gave an IC50 growth inhibition of 32.3 µM.

Compound `Cc1cc(C(=O)Cn2nnc3ccccc3c2=O)c(C)n1-c1ccccc1F` showed an IC50 growth inhibition of 20.5 µM.

The compound `O=C1NC(=O)C(c2cnc3ccccn23)=C1c1cn2c3c(cc(F)cc13)CN(C(=O)N1CCCCC1)CC2` gave an IC50 growth inhibition of over 75 µM.

Consider `O=C1c2ccccc2C2=Nc3ccccc3SC(c3ccccc3F)C12` (stereo not given) [GNF-Pf-3582], for which the IC50 growth inhibition was determined as 5.87 µM.

Turning to `COCC1OC(=O)c2coc3c2C1(C)C1=C(C3=O)C2CCC(=O)C2(C)CC1OC(C)=O` (stereo not given) [Wortmannin], the IC50 growth inhibition stood at 27.7 µM.

`Oc1c(I)cc(I)c2cccnc12` [Iodoquinol] gave an IC50 growth inhibition of 5.5 µM.

`CC(C)(C)C(O)C(Oc1ccc(-c2ccccc2)cc1)n1cncn1` (stereo not given) came in with an IC50 growth inhibition of 70 µM.

Regarding `CSc1nc2cc(Oc3cccc(Cl)c3Cl)c(Cl)cc2[nH]1` [Triclabendazole], the IC50 growth inhibition came out at 6.29 µM.

Regarding `Cc1ccc(-c2nc(CN(Cc3ccccn3)C(C)C)cs2)o1`, the IC50 growth inhibition was 12 µM.

For `COc1cc2c(c(OC)c1OC)-c1ccc(OC)c(=O)cc1C(NC(C)=O)CC2` (stereo not given) [Colchicine], the IC50 growth inhibition is over 75 µM.

Turning to `CNS(=O)(=O)c1ccc(C(=O)Nc2ccc(Nc3ccccc3)cc2)o1`, the IC50 growth inhibition turned out to be 92.5 µM.

In the case of `COC1=C2CC(C)CC(OC)C(O)C(C)C=C(C)C(OC(N)=O)C(OC)C=CC=C(C)C(=O)NC(=CC1=O)C2=O` (stereo not given) [Geldanamycin], the IC50 growth inhibition is over 75 µM.

Compound `O=C(Nc1ccc(N2CCNCC2)cc1)c1ccn2ncc(-c3cccc(Cl)c3)c2n1` gave an IC50 growth inhibition of 8 µM.

Compound `COc1ccccc1NC(=O)c1ccc(NC(=O)Cn2ncc(Cl)c(Cl)c2=O)cc1` returned an IC50 growth inhibition of 0.238 µM.

In the case of `N#CC(C#N)=NNc1cc(Cl)cc(Cl)c1`, the IC50 growth inhibition was 20.6 µM.

Compound `O=C(Nc1ccc(C(F)(F)F)c(C(F)(F)F)c1)c1cc(Cl)ccc1O` gave an IC50 growth inhibition of 5.64 µM.

In turn, `O=C1N=c2ccccc2=C1NNC(=S)N1CCOCC1` returned an IC50 growth inhibition of 16.4 µM.

Take `CC1(COc2ccc(N3CCC(Oc4ccc(OC(F)(F)F)cc4)CC3)cc2)Cn2cc([N+](=O)[O-])nc2O1` (stereo not given) [Delamanid]: the IC50 growth inhibition was over 75 µM.

The compound `CC(=O)Nc1cccc(-n2c(=O)n(C3CC3)c(=O)c3c(Nc4ccc(I)cc4F)n(C)c(=O)c(C)c32)c1` [Trametinib] registered an IC50 growth inhibition of over 75 µM.

As for `O=C(Nc1ccc2oc(-c3cccc4ccccc34)nc2c1)c1ccc([N+](=O)[O-])o1` [GNF-PF-2740], the IC50 growth inhibition worked out at 0.941 µM.

Turning to `Cc1cc(NCCc2ccccc2)nc(NC(=N)Nc2ccc(Cl)cc2)n1`, the IC50 growth inhibition came out at 53.8 µM.

Take `CCc1ccc(Nc2cc(C)c3ccc(O)cc3n2)cc1`: the IC50 growth inhibition amounted to 2.09 µM.

The compound `c1ccc(CNc2nc(Nc3ccccc3)nc3ccccc23)cc1` had an IC50 growth inhibition of 8.62 µM.

With `Cc1cc(N(C)Cc2ccccc2Br)nc(N)n1`, the IC50 growth inhibition was 52.6 µM.

Turning to `CCCOC(=O)C1=C(C)NC2=C(C(=O)CC(c3ccc(OC)c(OC)c3)C2)C1c1ccc(Cl)cc1Cl` (stereo not given) [GNF-Pf-5672], the IC50 growth inhibition was 5.08 µM.

In turn, `CN1CCN(CCCN2c3ccccc3Sc3ccc(Cl)cc32)CC1` [Prochlorperazine] yielded an IC50 growth inhibition of 28.6 µM.

`Cc1ccc(N/N=C/c2c3ccccc3cc3ccccc23)cc1Cl` showed an IC50 growth inhibition of 14 µM.

Compound `Brc1ccc(Nc2nc3ccccc3nc2Nc2ccc(Br)cc2)cc1` had an IC50 growth inhibition of 2.31 µM.

The compound `Clc1cccc(C(c2ccc(CN3CCNCC3)cc2)n2ccnc2)c1` (stereo not given) yielded an IC50 growth inhibition of 28.7 µM.

`O=C(Nc1nc(-c2ccccn2)cs1)c1cncn1-c1ccccc1` gave an IC50 growth inhibition of 26.2 µM.

The compound `Cc1ccc(C2Sc3ccccc3N=C3C2=C(O)c2ccccc23)cc1` (stereo not given) [GNF-Pf-5468] returned an IC50 growth inhibition of 4.95 µM.

For `Nc1[nH]c(=O)ncc1F` [Flucytosine], the IC50 growth inhibition came out at 15.1 µM.

Compound `CNC(=O)c1cc(Oc2ccc(NC(=O)Nc3ccc(Cl)c(C(F)(F)F)c3)cc2)ccn1` [Sorafenib] showed an IC50 growth inhibition of 4.27 µM.

Turning to `Cn1c(N)c(C(=O)CSc2nnc(-c3ccccc3)c(-c3ccccc3)n2)c(=O)n(C)c1=O`, the IC50 growth inhibition was 22.9 µM.
